Experimental data taken from patent publication US4663068A, “Bleach-stable deodorant perfumes in detergent powders” (priority 1983, dated 1987).

Key:
[1] = Bleach Stability Test (triangle test after storage with perborate and TAED); assay type: physicochemical; details: number of 20 assessors correctly choosing odd one out; 0.2% material in powder with perborate and TAED, 45° C. one week; up to 9 = bleach-stable, 10 or more = unstable
Experimental: (i) dosing a perfume material into the standard unperfumed washing powder and incubating the dosed powder at 20° C. in a sealed container for seven days;
(ii) dividing the dosed powder into two portions and adding to each portion sodium perborate tetrahydrate together with either TAED granules or sodium sulphate (to act as an inert filler in place of TAED) to provide test and control formulations having the following constitution: […]
(iii) incubating both test and control powders in sealed containers at 45° C. for a further seven days; and
(iv) assessing samples of the test and control powders according to a standard triangle test as described in "Manual on Sensory Testing Methods" published by the American Society for Testing and Materials (1969), using a panel of 20 assessors, who are instructed to judge by smell which of the three powder samples is the odd one out, the perfume material being designated a bleach-stable deodorant perfume component when the odd one out is correctly identified by no more than 9 of the 20 assessors.
The stability of perfume materials to the presence of a bleaching composition is assessed according to a standard test which involves the exposure of these individual perfume materials to a mixture of sodium perborate tetrahydrate and TAED in a detergent fabric washing powder under standard conditions of storage.
In order to perform this test, a detergent powder base is prepared according to a standard blowing technique to form a granulated product. The formulation of the detergent powder base is as follows: […]
A selected perfume material is then incorporated by mixing with a portion of the blown base powder to a final concentration of 0.2% by weight of the finished product, and stored at 20° C. in a sealed container for one week with occasional mixing to ensure an even concentration of the perfume material throughout the powder. The sample is the split into two portions and further ingredients mixed in to provide the following test and control formulations:
100 g samples of each control and test batch of powder containing a selected perfume material are then sealed in containers and stored at 45° C. for one week. Each sample is then assessed in a forced choice triangle test according to the following procedure:
Three samples of powder, either one from the test batch and two from the control batch, or two from the test batch and one from the control batch are then assessed by a panel of 20 assessors who are asked to select by sniffing which of the three samples is the "odd one out".
The fragrance of samples containing bleach-stable perfume materials should be unchanged following incubation in the presence of the perborate and TAED, and accordingly there is a 1 in 3 chance of an assessor selecting correctly the control or test sample as the "odd one out".
The Triangle Test procedure is described and discussed in "Manual on Sensory Testing Methods" published by the American Society for Testing and Materials (1969).
The results of each Triangle Test are calculated as follows: […]
If 10 or more of the 20 assessors choose correctly the "odd one out" of the three samples, then the perfume material under test is judged to be unstable in the presence of bleach. If, however, up to 9 of the 20 accessors choose correctly the "odd one out" of 3 samples, then the perfume material under test is judged to be stable in the presence of bleach.

[2] = Morpholine Test (depression of partial vapour pressure of morpholine, Raoult Variance Ratio); details: morpholine 0.25 g + material 1 g, 37° C., headspace GC
[3] = target: T1, lipoxidase (EC1.13.1.13) (Glycine max, UniProt P08170); assay: Lipoxidase Test (inhibition of oxidation of linoleic acid by lipoxidase); assay type: biochemical; details: test substrate made with 0.5% by weight solution of material in ethanol; for inhibition at 0.5 % strength: borate buffer pH 9.0, 234 nm, read-out: LIC value (Lipoxidase-Inhibiting Capacity); for LIC value (Lipoxidase-Inhibiting Capacity): % inhibition, borate buffer pH 9.0, 234 nm
T1 sequence (P08170 1-839): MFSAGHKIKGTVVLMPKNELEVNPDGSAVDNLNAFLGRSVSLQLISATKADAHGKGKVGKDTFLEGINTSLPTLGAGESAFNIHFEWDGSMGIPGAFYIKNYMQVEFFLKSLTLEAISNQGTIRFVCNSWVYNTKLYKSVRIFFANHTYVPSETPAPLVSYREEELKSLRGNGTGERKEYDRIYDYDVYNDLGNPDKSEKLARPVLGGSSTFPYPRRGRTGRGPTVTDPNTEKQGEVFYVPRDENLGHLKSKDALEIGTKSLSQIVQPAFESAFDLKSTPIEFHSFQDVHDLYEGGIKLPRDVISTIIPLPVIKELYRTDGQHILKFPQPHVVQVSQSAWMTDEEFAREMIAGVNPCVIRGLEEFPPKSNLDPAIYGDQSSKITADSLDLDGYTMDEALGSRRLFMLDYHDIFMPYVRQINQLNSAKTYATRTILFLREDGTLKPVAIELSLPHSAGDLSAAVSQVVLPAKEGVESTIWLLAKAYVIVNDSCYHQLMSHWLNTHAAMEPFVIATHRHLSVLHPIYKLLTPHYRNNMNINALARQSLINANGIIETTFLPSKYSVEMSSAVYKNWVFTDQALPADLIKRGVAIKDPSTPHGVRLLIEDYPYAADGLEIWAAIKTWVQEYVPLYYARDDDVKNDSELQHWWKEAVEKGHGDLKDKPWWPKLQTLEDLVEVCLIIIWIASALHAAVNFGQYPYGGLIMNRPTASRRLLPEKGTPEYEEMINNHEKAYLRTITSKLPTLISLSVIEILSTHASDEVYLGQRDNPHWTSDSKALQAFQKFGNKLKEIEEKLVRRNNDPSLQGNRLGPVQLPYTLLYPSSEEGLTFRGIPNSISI

| Compound | BST panel score [1] | RVR value (Raoult Variance Ratio) [2] | inhibition at 0.5 % strength [3] | LIC value (Lipoxidase-Inhibiting Capacity) [3] |
| --- | --- | --- | --- | --- |
| CC1COCc2cc3c(cc21)C(C)(C)C(C)C3(C)C (stereo not drawn) [1,3,4,6,7,8-Hexahydro-4,6,6,7,8,8-hexamethyl cyclopenta-α-2-benzopyran] | 5 |  |  |  |
| CCCCCCCC1CCCC1=O (stereo not drawn) [2-n-Heptylcyclo-pentanone] | 7 | 1.05 |  |  |
| CC1(C)CCCC2(C)C1CCC1(C)OCCC12 (stereo not drawn) [3a-Methyl-dodecahydro-6,6,9a-trimethylnaphtho-2(2,1-b)furan] | 5 | 1.30 |  |  |
| O=C(OCc1ccccc1)c1ccccc1O [Benzyl salicylate] | 17 | 1.58 |  |  |
| Cc1ccc(C(C)C)cc1O [Carvacrol] | 6 | 1.43 |  |  |
| OC/C=C/c1ccccc1 [Cinnamic alcohol] | 9 | 1.28 |  |  |
| O=c1ccc2ccccc2o1 [Coumarin] | 10 | 1.22 |  |  |
| CCOC(=O)c1ccccc1C(=O)OCC [Diethyl phthalate] | 4 | 1.20 |  |  |
| CCOC(=O)c1ccccc1O [Ethyl salicylate] | 7 | 1.19 |  |  |
| CCOc1cc(C=O)ccc1O [Ethyl vanillin] | 12 | 1.43 |  |  |
| CCCCCCOC(=O)c1ccccc1O [Hexyl salicylate] | 5 |  | 100% |  |
| COC(=O)c1ccccc1N [Methyl anthranilate] | 6 | 1.20 | 69% |  |
| CCCCCCC(CCOC(C)=O)OC(C)=O (stereo not drawn) [Nonanediol-1,3-diacetate] | 8 | 1.17 |  |  |
| CCCCCC1CCC(=O)O1 (stereo not drawn) [Nonanolide-1,4] | 5 | 0.87 |  |  |
| OCCc1ccccc1 [Phenylethyl alcohol] | 10 | 1.24 |  |  |
| O=C(Cc1ccccc1)OCCc1ccccc1 [Phenylethyl phenyl acetate] | 7 | 1.22 |  |  |
| CC(C)CCOC(=O)c1ccccc1O [iso-Amyl salicylate] | 9 | 1.24 |  |  |
| CC(C)Cc1ccc2ncccc2c1 [iso-Butyl quinoline] | 5 | 1.10 |  |  |
| C/C=C\c1ccc(O)c(OC)c1 [iso-Eugenol] | 4 | 1.48 |  |  |
| CC(=O)OC1CCCCC1C(C)(C)C (stereo not drawn) [o-t-Butylcyclohexyl acetate] | 8 | 1.08 |  |  |
| CCC(C)(C)C1CCC(=O)CC1 [p-t-Amyl cyclohexanone] | 8 | 1.10 |  |  |
| CC(=O)OC1CCC(C(C)(C)C)CC1 (stereo not drawn) [p-t-Butyl cyclohexyl acetate] | 10 | 0.98 |  |  |
| CC(C=O)Cc1ccc(C(C)(C)C)cc1 (stereo not drawn) [p-t-Butyl-α-methyl hydrocinnamic aldehyde] | 13 |  |  |  |
| CC(=O)C(C)=CC1C(C)=CCCC1(C)C (stereo not drawn) [α-iso-Methyl ionone] | 7 |  |  |  |
| CC(=O)c1ccc2ccccc2c1 [β-Methyl naphthyl ketone] | 3 | 0.96 |  |  |
| Dimyrcetol | 9 | 1.22 |  | 16% |
| Hydroxymethyl isopropyl cyclopentane | 8 | 1.23 |  | 60% |
| Tetrahydromuguol | 8 | 1.23 |  | 24% |
| i-Nonyl acetate | 4 | 0.83 |  | 50% |
| i-Nonyl formate | 8 | 1.49 |  | 19% |
